Literature values in patent publication EP0349514A1, “Prolonged-release pharmaceutical composition containing erythromycine, its preparation and its use” (priority 1988, dated 1990).

Conditions: plasma

CC[C@H]1OC(=O)[C@H](C)[C@@H](O[C@H]2C[C@@](C)(OC)[C@@H](O)[C@H](C)O2)[C@H](C)[C@@H](O[C@@H]2O[C@H](C)C[C@H](N(C)C)[C@H]2O)[C@](C)(O)C[C@@H](C)C(=O)[C@H](C)[C@@H](O)[C@]1(C)O [érythromycine]
temps de demi-vie plasmatique t 1/2: 1,6 h
